Values quoted from earlier work in US20180228146A1, “INSECTICIDAL COMPOSITION AND METHOD” (priority 2014, published 2018).
≈ marks a conversion by molar mass, not a printed value.

**Q.** What does the source list for CCOP(=S)(OCC)Oc1nc(Cl)c(Cl)cc1Cl [chlorpyrifos, O,O-diethyl O-3,5,6-trichloro-2-pyridyl phosphorothioate]?
**A.** Henry's law constant at 25° C. (25° C.): 6.76 × 10^−1 Pa m^3 mol^−1; Vapour pressure at 25° C. (25° C.): 2.7 mPa; Solubility Acetone (25° C.) (acetone, 25° C.): 6500 g/kg; Solubility Benzene (25° C.) (benzene, 25° C.): 7900 g/kg; Solubility Carbon disulfide (25° C.) (carbon disulfide, 25° C.): 5900 g/kg; Solubility Chloroform (25° C.) (chloroform, 25° C.): 6300 g/kg; Solubility Diethyl ether (25° C.) (diethyl ether, 25° C.): 5100 g/kg; Stability (hydrolysis, with pH): Rate of hydrolysis increases; Solubility Iso-octanol (25° C.) (iso-octanol, 25° C.): 790 g/kg; Solubility Methanol (25° C.) (methanol, 25° C.): 450 g/kg; DT50 (phosphate buffer, pH 7, 15° C.) (phosphate buffer, pH 7, 15° C.): 100 d; Solubility water (25° C.) (water, 25° C.): 1.4 µg/mL (≈ 3.99 µM); DT50 (water, pH 8, 25° C.) (water, pH 8, 25° C.): 1.55 d; Solubility Xylene (25° C.) (xylene, 25° C.): 5000 g/kg
